Where a name gives a salt, the structure may show the parent alone. Read-outs that look alike come from different tables or passages of the source.
Legend:
[1] = system: AKT phosphorylation (Pi-AKT) in LNCaP cells; test: AKT phosphorylation by Western blot in LNCaP cells; type: cell-based, human
Protocol: As another assessment of cytotoxicity, AKT inhibition was measured. […] The immunoblots were visualized by enhanced, chemiluminescence, and changes of relative levels of phospho-AKT compared to total AKT by analog treatment were quantified by densitometric analysis.
Prostate cell line LNCaP cells were treated with 30 μM of the compound of Formula: [drawing 54]
for the indicated period and time. The active form of AKT (Pi-AKT) and the β-Actin were quantified by Western blot analysis. […]
Prostate cell line LNCaP cells were treated with 10 μM of the compound of Formula: [drawing 55]
for the indicated period and time. The active form of AKT (Pi-AKT) and AKT were quantified by Western blot analysis. […]
Prostate cell line LNCaP cells were treated with 10 μM of the compound of Formula [drawing 56]
for the indicated period and time. The active form of AKT (Pi-AKT), AKT and β-Actin were quantified by Western blot analysis. […]

[2] = system: LNCaP human prostate cancer cells; test: SRB cytotoxicity assay, LNCaP; type: cell-based; conditions: Homo sapiens
Protocol: (§1) For in vitro cytotoxicity screening, 1000 to 5000 cells were plated into each well of 96-well plates depending on growth rate, and exposed to different concentrations of a test compound for 96 h in three to five replicates. All the compounds were dissolved in dimethyl sulfoxide at 5 to 20 mM, and diluted to desired concentrations in complete culture medium. Cell numbers at the end of the drug treatment were measured by the SRB assay (Gududuru et al., “Synthesis and Biological Evaluation of Novel Cytotoxic Phospholipids for Prostate Cancer,” Bioorg. Med. Chem. Lett. 14:4919-4923 (2004); Rubinstein et at., “Comparison of in vitro Anticancer-Drug-Screening Data Generated with a Tetrazolium Assay Versus a Protein Assay Against a Diverse Panel of Human Tumor Cell Lines,” J. Naatl, Cancer Inst. 82:1113-1118 (1990), each of which is hereby incorporated by reference in its entirety). Briefly, the cells were fixed with 10% of trichloroacetic acid, stained with 0.4% SRB, and the absorbances at 540 nm was measured using a plate reader (DYNEX Technologies, Chantilly, Va.).
(§2) The antiproliferative activity of all the synthesized compounds was evaluated against five human prostate cancer cell lines and in RH7777 cells (negative control) using the sulforhodamine B (SRB) assay (see description in Example 5 above).
(§3) The chosen cell lines represent different basal levels of active AKT and LPL receptor expression (discussed later). Cells were exposed to a wide range of concentrations (0 to 100 μM) of the indicated compound for 96 h. Cell numbers at the end of treatment were measured using the sulforhodamine B (SRB) assay^5.
(§4) Cells were exposed to a wide range of concentrations (0 to 100 μM) of the particular compound for 96 h in 96 well plates. Cells were fixed with 10% trichloroacetic acid, washed five times with water. The plates were air dried overnight and fixed cells were stained with SRB solution. The cellular protein-bound SRB was measured at 540 nm using a plate reader. Cell numbers at the end of the treatment were measured.
as §4, with “96-well” for “96 well”, “calculated as a percentage of untreated control.” for “measured.”

[3] = system: PPC-1 human prostate cancer cells; test: SRB cytotoxicity assay, PPC-1; type: cell-based; conditions: Homo sapiens, PPC-1, 96 h, read-out: IC50 PPC-1
Protocol: (§5) Dr. Mitchell Steiner at University of Tennessee Health Science Center, kindly provided PPG-1 and TSU-PrI cells.
as §1, §2, §3, §4
as §4, with “96-well” for “96 well”, “calculated as a percentage of untreated control.” for “measured.”

[4] = system: RH7777 rat hepatoma cells; test: SRB cytotoxicity assay, RH7777 control cell line; type: cell-based; conditions: Rattus norvegicus, RH7777, 96 h, read-out: IC50 RH7777
Protocol: as §1, §2, §3, §4
as §4, with “96-well” for “96 well”, “calculated as a percentage of untreated control.” for “measured.”

[5] = system: DU-145 human prostate cancer cells; test: SRB cytotoxicity assay, DU-145; type: cell-based; conditions: Homo sapiens, 96 h
Protocol: as §1, §2, §3, §4
as §4, with “96-well” for “96 well”, “calculated as a percentage of untreated control.” for “measured.”

[6] = system: TSU-Pr1 human prostate cancer cells; test: SRB cytotoxicity assay, TSU-Pr1; type: cell-based; conditions: Homo sapiens, TSU-Pr1, 96 h, read-out: IC50 TSU-Pr1
Protocol: as §5, §1, §2, §3, §4
as §4, with “96-well” for “96 well”, “calculated as a percentage of untreated control.” for “measured.”

[7] = system: PC-3 human prostate cancer cells; test: SRB cytotoxicity assay, PC-3; type: cell-based; conditions: Homo sapiens, 96 h, read-out: IC50 PC-3
Protocol: as §1, §2, §3, §4
as §4, with “96-well” for “96 well”, “calculated as a percentage of untreated control.” for “measured.”

[8] = system: human breast cancer cell line (MCF-7); test: SRB cytotoxicity assay, MCF-7; type: cell-based; conditions: Homo sapiens, MCF7, read-out: IC50 MCF-7
Protocol: as §1
In vitro cytotoxicity assay was performed by the same sulforhodamine B (SRB) assay (described above). The compounds shown in Table 8 below where tested for activity against the breast cancer and ovarian cancer cell lines.
as §3, §4

[9] = stated in the text of the LNCaP AKT experiments (Examples 12-14), test of the IC50 not named, read-out: IC50
[10] = DU-145, read-out: IC50 DU-145, Table 4
[11] = LNCaP, Table 4, 96 h, read-out: IC50 LNCaP
[12] = DU-145, Example 11 table, read-out: IC50 DU145
[13] = LNCaP, Example 11 table, 96 h, read-out: IC50 LNCaP
[14] = Example 14, 10 μM, 1 h, (−) control 1.00

CCCCCCCCCCCCCCCCCCNC[C@H](CO)NC.Cl [drawing 55]
Time to almost complete inhibition of AKT phosphorylation ([1]; Example 13, 10 μM): ≤ 6 h
Relative abundance (Pi-AKT/AKT) ([1]; Example 13, 10 μM, 6 h, (−) control 1.00): 0.07
Relative abundance (Pi-AKT/AKT) ([1]; Example 13, 10 μM, 12 h): 0.31
Relative abundance (Pi-AKT/AKT) ([1]; Example 13, 10 μM, 24 h): 1.02
Relative abundance (Pi-AKT/AKT) ([1]; Example 13, 10 μM, 36 h): 0.63
Relative abundance (Pi-AKT/AKT) ([1]; Example 13, 10 μM, 48 h): 0.94
IC50 [2, 9]: 3.3 µM

CCCCCCCCCCCCCCCCCCNC(=O)[C@@H]1CSC(c2cc(F)cc(F)c2)N1 (mixture of isomers) [Compound 23, (2RS, 4R)-2-(3,5-Difluoro-phenyl)-thiazolidine-4-carboxylic acid octadecylamide]
IC50 ([3]; Table 4): 10.6 µM
IC50 ([4]; Table 4, control cell line): > 20 µM
IC50 [5, 10]: > 20 µM
IC50 [2, 11]: 11.2 µM
IC50 ([6]; Table 4): > 20 µM
IC50 ([7]; Table 4): > 20 µM
melting point: 113 °C

O=C(O)[C@@H]1CSC(c2ccc(F)cc2)N1 (some centres unmarked)
IC50 ([3]; Example 11 table): > 100 µM
IC50 ([4]; Example 11 table): > 100 µM
IC50 ([8]; Example 11 table, 96 h): > 100 µM
IC50 [5, 12]: > 100 µM
IC50 [2, 13]: > 100 µM
IC50 ([6]; Example 11 table): > 100 µM
IC50 ([7]; Example 11 table): > 100 µM

O=C(O)[C@@H]1CSC(c2cccnc2)N1 (some centres unmarked)
IC50 ([3]; Example 11 table): > 100 µM
IC50 ([4]; Example 11 table): > 100 µM
IC50 ([8]; Example 11 table, 96 h): > 100 µM
IC50 [5, 12]: > 100 µM
IC50 [2, 13]: > 100 µM
IC50 ([6]; Example 11 table): ~100 µM
IC50 ([7]; Example 11 table): > 100 µM

CC(C)(C)OC(=O)N[C@H](CO)C(=O)NCCCCCCCCCCCCNC(=O)[C@@H](CO)NC(=O)OC(C)(C)C
IC50 ([3]; Example 11 table): > 20 µM
IC50 ([4]; Example 11 table): 8.5 µM
IC50 ([8]; Example 11 table, 96 h): 10.6 µM
IC50 [5, 12]: > 20 µM
IC50 [2, 13]: 12.5 µM
IC50 ([6]; Example 11 table): 3.7 µM
IC50 ([7]; Example 11 table): > 20 µM

CCCCCCCCCCCCCCCCCCNC(=O)[C@@H]1CSC(c2ccc(-c3ccccc3)cc2)N1 (mixture of isomers) [Compound 27-HCI, (2RS, 4R)-2-Biphenyl-4-yl-thiazolidine-4-carboxylic acid octadecylamide Hydrochloride]
IC50 ([3]; Table 4): > 20 µM
IC50 ([4]; Table 4, control cell line): > 20 µM
IC50 ([8]; Table 8, breast cancer cell line): > 20 µM
IC50 [5, 10]: > 20 µM
IC50 [2, 11]: > 20 µM
IC50 ([6]; Table 4): > 20 µM
IC50 ([7]; Table 4): > 20 µM

CCCCCCCCCCCCCCCCCCNC(=O)[C@H](CO)NC(=O)OC(C)(C)C
Relative abundance (Pi-AKT/β-Actin) ([1]; 30 μM, 1 h, (−) control 1.00): 1.29
Relative abundance (Pi-AKT/β-Actin) ([1]; 30 μM, 2 h): 1.01
Relative abundance (Pi-AKT/β-Actin) ([1]; 30 μM, 6 h): 0.71
Relative abundance (Pi-AKT/β-Actin) ([1]; 30 μM, 12 h): 0.50
Relative abundance (Pi-AKT/β-Actin) ([1]; 30 μM, 24 h): 0.32
Relative abundance (Pi-AKT/β-Actin) ([1]; 30 μM, 48 h): <0.10
Relative abundance (Pi-AKT/β-Actin) ([1]; 30 μM, 72 h): <0.10
AKT phosphorylation inhibited to ([1]; 30 μM, by 12 hours of treatment): 50%
IC50 [2, 9]: 10.3 µM

O=C(O)[C@@H]1CSC(c2c(Cl)cccc2Cl)N1 (some centres unmarked)
IC50 ([3]; Example 11 table): > 100 µM
IC50 ([4]; Example 11 table): > 100 µM
IC50 ([8]; Example 11 table, 96 h): > 100 µM
IC50 [5, 12]: > 100 µM
IC50 [2, 13]: > 100 µM
IC50 ([6]; Example 11 table): > 100 µM
IC50 ([7]; Example 11 table): > 100 µM

CCCCCCCCCCCCC1N[C@H](C(=O)O)CS1 (some centres unmarked)
IC50 ([3]; Example 11 table): 12.6 µM
IC50 ([4]; Example 11 table): > 20 µM
IC50 ([8]; Example 11 table, 96 h): 16.3 µM
IC50 [5, 12]: ~20 µM
IC50 [2, 13]: 16.1 µM
IC50 ([6]; Example 11 table): ~20 µM
IC50 ([7]; Example 11 table): ~20 µM

CCCCCCCCCCCCCCCCCCNC[C@H](CO)NC.Cl
Time to almost complete inhibition of AKT phosphorylation ([1]; Example 14, 10 μM): ≤ 1 h
Relative abundance (Pi-AKT/AKT) [1, 14]: 0.07
Relative abundance (Pi-AKT/β-Actin) [1, 14]: 0.08
Relative abundance (Pi-AKT/AKT) ([1]; Example 14, 10 μM, 2 h): 0.06
Relative abundance (Pi-AKT/β-Actin) ([1]; Example 14, 10 μM, 2 h): 0.06
Relative abundance (Pi-AKT/AKT) ([1]; Example 14, 10 μM, 3 h): 0.04
Relative abundance (Pi-AKT/β-Actin) ([1]; Example 14, 10 μM, 3 h): 0.04
Relative abundance (Pi-AKT/AKT) ([1]; Example 14, 10 μM, 4 h): 0.12
Relative abundance (Pi-AKT/β-Actin) ([1]; Example 14, 10 μM, 4 h): 0.11
Relative abundance (Pi-AKT/AKT) ([1]; Example 14, 10 μM, 6 h): 0.12
Relative abundance (Pi-AKT/β-Actin) ([1]; Example 14, 10 μM, 6 h): 0.10
Relative abundance (Pi-AKT/AKT) ([1]; Example 14, 10 μM, 8 h): 0.14
Relative abundance (Pi-AKT/β-Actin) ([1]; Example 14, 10 μM, 8 h): 0.11
Relative abundance (Pi-AKT/AKT) ([1]; Example 14, 10 μM, 10 h): 0.14
Relative abundance (Pi-AKT/β-Actin) ([1]; Example 14, 10 μM, 10 h): 0.43

Reference: US20060014740A1 (priority 2003, published 2006)
